Laboratory results taken from US11000033B2, “Ketone or oxime compound, and herbicide” (NISSAN CHEMICAL CORPORATION, priority 2014, dated 2021).

Experiments:
Format in all cases: in vivo
[1] = test system: Echinochloa crus-galli var. crus-galli; assay: Test Example 3: herbicidal effect by foliage application, Wagner pot (symbol H); conditions: application herbicide amount 320 g/ha; for H (Echinochloa crus-galli var. crus-galli) herbicidal effect grade: Table 24
Procedure, shortened: (§1)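 Post-emergence, paddy-type test: seedlings 14 d old in shallow-flooded (0.1–0.5 cm) alluvial soil, 25–30 °C greenhouse. Emulsion diluted to target rate, sprayed on leaves. Read-out: visual effect on each species at 3 weeks, per set criteria.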

[2] = test system: Echinochloa crus-galli var. crus-galli; assay: Test Example 5: herbicidal effect by foliage application, plastic box (symbol H); conditions: 320 g/ha, 3 weeks after application
Procedure, shortened: (§2)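 After sowing into sterilized diluvial soil and growing two weeks under glass at 25° C. to 30° C., seedlings receive a uniform foliar spray of diluted emulsion. Damage is judged visually three weeks on.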

[3] = test system: Veronica persica; assay: Test Example 4: herbicidal effect by soil treatment (symbol R)
Procedure, shortened: (§3)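 Seeds were sown in sterilized diluvial soil, covered with about 1.5 cm of soil, and the soil surface was sprayed with a water-diluted emulsion of the compound at a predetermined rate. Plants grew in a greenhouse at 25° C. to 30° C.; effects were scored visually 3 weeks after application.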

[4] = test system: Stellaria media; assay: Test Example 4: herbicidal effect by soil treatment (symbol P)
Procedure, shortened: as §3

[5] = test system: Stellaria media; assay: Test Example 5: herbicidal effect by foliage application, plastic box (symbol P); conditions: 320 g/ha, 3 weeks after application
Procedure, shortened: as §2

[6] = test system: Lolium multiflorum Lam.; assay: Test Example 4: herbicidal effect by soil treatment (symbol K)
Procedure, shortened: as §3

[7] = test system: rice plant; assay: Test Example 5: effect on crop by foliage application, plastic box (symbol b); conditions: 320 g/ha, 3 weeks after application
Procedure, shortened: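 Box culture: sterile diluvial soil, seeds spot-sown, ~1.5 cm cover, raised under glass at 25–30° C.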

[8] = test system: Leptochloa chinensis; assay: Test Example 3: herbicidal effect by foliage application, Wagner pot (symbol D); conditions: application herbicide amount 320 g/ha; for D (Leptochloa chinensis) herbicidal effect grade: Table 24
Procedure, shortened: as §1

[9] = test system: Chenopodium album; assay: Test Example 5: herbicidal effect by foliage application, plastic box (symbol O); conditions: 320 g/ha, 3 weeks after application
Procedure, shortened: as §2

[10] = test system: Avena fatua; assay: Test Example 4: herbicidal effect by soil treatment (symbol I)
Procedure, shortened: as §3

[11] = test system: rice; assay: Test Example 4: effect on crop by soil treatment (symbol b); conditions: for b: directly sowed rice plant, effect grade on crop: 320 g/ha
Procedure, shortened: (§4)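 Steps: fill box with sterilized diluvial soil; sow seed spot-like; cover with ~1.5 cm soil; grow in greenhouse (25° C. to 30° C.).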

[12] = test system: Alopecurus myosuroides; assay: Test Example 4: herbicidal effect by soil treatment (symbol J)
Procedure, shortened: as §3

[13] = test system: Setaria viridis; assay: Test Example 4: herbicidal effect by soil treatment (symbol G)
Procedure, shortened: as §3

[14] = test system: Alopecurus myosuroides; assay: Test Example 5: herbicidal effect by foliage application, plastic box (symbol J); conditions: 320 g/ha, 3 weeks after application
Procedure, shortened: as §2

[15] = test system: wheat; assay: Test Example 4: effect on crop by soil treatment (symbol e); conditions: for e: wheat, effect grade on crop: 320 g/ha
Procedure, shortened: as §4

[16] = test system: Digitaria ciliaris; assay: Test Example 4: herbicidal effect by soil treatment (symbol F)
Procedure, shortened: as §3

[17] = test system: Amaranthus retroflexus; assay: Test Example 5: herbicidal effect by foliage application, plastic box (symbol N); conditions: 320 g/ha, 3 weeks after application
Procedure, shortened: as §2

[18] = test system: Scirpus juncoides; assay: Test Example 2: herbicidal activity, application during weed generation in submerged conditions (symbol B); conditions: Table 23; application herbicide amount 320 g/ha; grade 0-5 by criteria of Test Example 1
Procedure, shortened: (§5)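 Steps: fill pots with alluvial soil; add water to 4 cm depth; co-sow the three weeds; grow at 25° C. to 30° C. under glass; at 1–2 leaves, dose the floodwater with diluted emulsion; rate damage visually after 3 weeks.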

[19] = test system: Echinochloa oryzacola Vasing.; assay: Test Example 2: herbicidal activity, application during weed generation in submerged conditions (symbol A); conditions: Table 23; application herbicide amount 320 g/ha; grade 0-5 by criteria of Test Example 1
Procedure, shortened: as §5

[20] = application herbicide amount 320 g/ha

Row | SMILES | H (Echinochloa crus-galli var. crus-galli) herbicidal effect grade [1] | H: Echinochloa crus-galli var. crus-galli, herbicidal effect grade [2] | P: Stellaria media, herbicidal effect grade [5] | b: directly sowed rice plant, effect on crop grade [7] | D (Leptochloa chinensis) herbicidal effect grade [8] | O: Chenopodium album, herbicidal effect grade [9] | J: Alopecurus myosuroides, herbicidal effect grade [14] | N: Amaranthus retroflexus, herbicidal effect grade [17] | herbicidal effect on H (Echinochloa crus-galli var. crus-galli), grade 0-5 [1] | H: Echinochloa crus-galli var. crus-galli, herbicidal effect (criteria 0-5) [2] | R: Veronica persica, herbicidal effect grade ([3]; 320 g/ha) | P: Stellaria media, herbicidal effect grade ([4]; 320 g/ha) | P: Stellaria media, herbicidal effect (criteria 0-5) [5] | K: Lolium multiflorum Lam., herbicidal effect grade ([6]; 320 g/ha) | b: directly sowed rice plant, effect on crop (criteria 0-5) [7] | herbicidal effect on D (Leptochloa chinensis), grade 0-5 [8] | I: Avena fatua, herbicidal effect grade ([10]; 320 g/ha) | b: directly sowed rice plant, effect grade on crop [11] | J: Alopecurus myosuroides, herbicidal effect grade ([12]; 320 g/ha) | G: Setaria viridis, herbicidal effect grade ([13]; 320 g/ha) | also measured
1 | CC(CC1CC(OC(=O)N2CCOCC2)=C(c2c(C)cc(-c3ccc(Cl)cc3)cc2C)C1=O)=NOCC(F)(F)F (mixture of isomers) [9-025] | 0 (Herbicidal ratio of 5% or lower (almost no effect)) | 1 (Herbicidal ratio of 5% or higher and lower than 20%) | 0 (Herbicidal ratio of 5% or lower (almost no effect)) | 0 (Herbicidal ratio of 5% or lower (almost no effect)) | 5 (Herbicidal ratio of 90% or more (almost completely withered)) | 0 (Herbicidal ratio of 5% or lower (almost no effect)) | 0 (Herbicidal ratio of 5% or lower (almost no effect)) | 0 (Herbicidal ratio of 5% or lower (almost no effect)) |  |  |  |  |  |  |  |  |  |  |  |  | Herbicidal effect grade, R: Veronica persica [3, 20]: 0 (Herbicidal ratio of 5% or lower (almost no effect)); Herbicidal effect grade, P: Stellaria media [4, 20]: 0 (Herbicidal ratio of 5% or lower (almost no effect)); Herbicidal effect grade, K: Lolium multiflorum Lam. [6, 20]: 0 (Herbicidal ratio of 5% or lower (almost no effect)); Herbicidal effect grade, I: Avena fatua [10, 20]: 0 (Herbicidal ratio of 5% or lower (almost no effect)); Effect on crop grade, b: directly sowed rice plant [11, 20]: 0 (Herbicidal ratio of 5% or lower (almost no effect)); Herbicidal effect grade, J: Alopecurus myosuroides [12, 20]: 0 (Herbicidal ratio of 5% or lower (almost no effect)); Herbicidal effect grade, G: Setaria viridis [13, 20]: 0 (Herbicidal ratio of 5% or lower (almost no effect)); Effect on crop grade, e: wheat [15, 20]: 0 (Herbicidal ratio of 5% or lower (almost no effect)); Herbicidal effect grade, F: Digitaria ciliaris [16, 20]: 2 (Herbicidal ratio of 20% or higher and lower than 40%)
2 | CON=C(CC1CC(OC(=O)N2CCOCC2)=C(c2c(C)cc(C)cc2OC)C1=O)C1CC1 (mixture of isomers) [13-005] | 5 (Herbicidal ratio of 90% or more (almost completely withered)) | 5 (Herbicidal ratio of 90% or more (almost completely withered)) | 0 (Herbicidal ratio of 5% or lower (almost no effect)) | 5 (Herbicidal ratio of 90% or more (almost completely withered)) | 5 (Herbicidal ratio of 90% or more (almost completely withered)) | 0 (Herbicidal ratio of 5% or lower (almost no effect)) | 5 (Herbicidal ratio of 90% or more (almost completely withered)) | 0 (Herbicidal ratio of 5% or lower (almost no effect)) |  |  |  |  |  |  |  |  |  |  |  |  | Herbicidal effect grade, B: Scirpus juncoides [18]: 2 (Herbicidal ratio of 20% or higher and lower than 40%); R: Veronica persica, herbicidal effect grade [3, 20]: 0 (Herbicidal ratio of 5% or lower (almost no effect)); P: Stellaria media, herbicidal effect grade [4, 20]: 0 (Herbicidal ratio of 5% or lower (almost no effect)); K: Lolium multiflorum Lam., herbicidal effect grade [6, 20]: 5 (Herbicidal ratio of 90% or more (almost completely withered)); I: Avena fatua, herbicidal effect grade [10, 20]: 0 (Herbicidal ratio of 5% or lower (almost no effect)); b: directly sowed rice plant, effect on crop grade [11, 20]: 1 (Herbicidal ratio of 5% or higher and lower than 20%); J: Alopecurus myosuroides, herbicidal effect grade [12, 20]: 4 (Herbicidal ratio of 70% or higher and lower than 90%); G: Setaria viridis, herbicidal effect grade [13, 20]: 0 (Herbicidal ratio of 5% or lower (almost no effect)); Herbicidal effect grade, A: Echinochloa oryzacola Vasing. [19]: 5 (Herbicidal ratio of 90% or more (almost completely withered)); e: wheat, effect on crop grade [15, 20]: 1 (Herbicidal ratio of 5% or higher and lower than 20%); F: Digitaria ciliaris, herbicidal effect grade [16, 20]: 4 (Herbicidal ratio of 70% or higher and lower than 90%)
3 | CC(CC1CC(O)=C(c2c(C)cc(C)cc2C)C1=O)=NOCc1ccccc1[N+](=O)[O-] (stereo not drawn) [1-119] |  |  |  |  |  |  |  |  | 5 (Herbicidal ratio of 90% or more (almost completely withered)) | 5 (Herbicidal ratio of 90% or more (almost completely withered)) | 0 (Herbicidal ratio of 5% or lower (almost no effect)) | 0 (Herbicidal ratio of 5% or lower (almost no effect)) | 1 (Herbicidal ratio of 5% or higher and lower than 20%) | 5 (Herbicidal ratio of 90% or more (almost completely withered)) | 5 (Herbicidal ratio of 90% or more (almost completely withered)) | 4 (Herbicidal ratio of 70% or higher and lower than 90%) | 1 (Herbicidal ratio of 5% or higher and lower than 20%) | 5 (Herbicidal ratio of 90% or more (almost completely withered)) | 4 (Herbicidal ratio of 70% or higher and lower than 90%) | 4 (Herbicidal ratio of 70% or higher and lower than 90%) | O: Chenopodium album, herbicidal effect (criteria 0-5) [9]: 3 (Herbicidal ratio of 40% or higher and lower than 70%); J: Alopecurus myosuroides, herbicidal effect (criteria 0-5) [14]: 5 (Herbicidal ratio of 90% or more (almost completely withered)); e: wheat, effect grade on crop [15]: 0 (Herbicidal ratio of 5% or lower (almost no effect)); F: Digitaria ciliaris, herbicidal effect grade ([16]; 320 g/ha): 4 (Herbicidal ratio of 70% or higher and lower than 90%); N: Amaranthus retroflexus, herbicidal effect (criteria 0-5) [17]: 0 (Herbicidal ratio of 5% or lower (almost no effect))
4 | CON=C(C)CC1CC(OC(=O)N(C)CCCCCl)=C(c2c(C)cc(C)cc2C)C1=O (stereo not drawn) [1-126] |  |  |  |  |  |  |  |  | 3 (Herbicidal ratio of 40% or higher and lower than 70%) | 4 (Herbicidal ratio of 70% or higher and lower than 90%) | 0 (Herbicidal ratio of 5% or lower (almost no effect)) | 0 (Herbicidal ratio of 5% or lower (almost no effect)) | 0 (Herbicidal ratio of 5% or lower (almost no effect)) | 4 (Herbicidal ratio of 70% or higher and lower than 90%) | 4 (Herbicidal ratio of 70% or higher and lower than 90%) | 5 (Herbicidal ratio of 90% or more (almost completely withered)) | 0 (Herbicidal ratio of 5% or lower (almost no effect)) | 0 (Herbicidal ratio of 5% or lower (almost no effect)) | 3 (Herbicidal ratio of 40% or higher and lower than 70%) | 0 (Herbicidal ratio of 5% or lower (almost no effect)) | J: Alopecurus myosuroides, herbicidal effect (criteria 0-5) [14]: 5 (Herbicidal ratio of 90% or more (almost completely withered)); e: wheat, effect grade on crop [15]: 0 (Herbicidal ratio of 5% or lower (almost no effect)); F: Digitaria ciliaris, herbicidal effect grade ([16]; 320 g/ha): 0 (Herbicidal ratio of 5% or lower (almost no effect)); N: Amaranthus retroflexus, herbicidal effect (criteria 0-5) [17]: 0 (Herbicidal ratio of 5% or lower (almost no effect))
